Tested on: gene expression in etiolated eto1-4 seedlings
Assay: Transcriptional profiling (ATH1 GeneChip microarray) of etiolated eto1-4 seedlings
Type: in vivo, Arabidopsis thaliana
Experimental: For chemical treatments, seeds were sown on 0.5×MS agar medium supplemented with 10 μM chemicals (AVG, compounds 9393, 9370, and 7303) or DMSO (as control). Arabidopsis seeds were stratified in the dark at 4° C. for 4 days, then germinated in the dark for 3 days at 22° C. Approximately 2,000 etiolated seedlings of the wild type or eto1-4 were used to collect tissues for preparation of total RNA in each microarray experiment with Arabidopsis ATH1 GeneChip (Affymetrix). Extraction of RNA followed an established protocol (Chang, et al. (1993) Plant Mol. Biol. Rep. 11, 113-117). Total RNA (10 μg) was used to prepare biotinylated cRNA for hybridization to ATH1 GeneChip in the experiments disclosed herein. Experiments were repeated by 2 independent biological duplicates, and candidate genes present in both experiments were selected for further analysis. The MASS method was used for data analysis and normalization by all sample medium. Candidate genes were selected by the following criteria. First, genes with 1.5-fold differential expression between the wild type and eto1-4 were selected as the master gene pool, which was then used for comparison in treatments with AVG and individual exemplary compounds. Data were presented in hierarchical clustering and Venn diagram format. Agilent GeneSpring GX and Bioconductor software were used to analyze the expression profile data. Gene Ontology descriptions were generated by GeneSpring GX and further referred to the TAR GO database. Raw data are available in the GEO database (http://www.ncbi.nlm.nih.gov/geo) with Accession no. GSE20897.
The filtered and normalized expression data set from 22810 probes on the ATH1 Genechip was used for hierarchical clustering of gene expression profiles for comparison between AVG and the exemplary invention compounds in eto1-4. It was identified that 1,446 genes show at least 1.5-fold difference in expression between the WT and eto1-4 and used them as the master gene pool for clustering analysis (FIG. 7A). […] These genes likely contribute to the etiolated phenotype of eto1-4 by responding to elevated endogenous ethylene. To determine whether the exemplary compounds have specific r overlapping functions with AVG to suppress the eto1-4 phenotype, genes that are regulated by individual exemplary invention compounds and AVG for Venn diagram analysis were clustered (FIG. 7B). More than 63% of genes (356/561 for compound 9393; 389/561 for compound 9370; 399/561 for compound 7303; FIG. 7B) with expression associated with AVG were co-regulated by the exemplary invention compounds, which indicates an overlap function in suppression of the ethylene phenotype in eto1-4. […] Next genes co-regulated by all of the exemplary invention compounds and AVG were examined by performing a clustering analysis using the co-regulated genes identified in FIG. 7B: 356 (compound 9393 vs AVG), 389 (compound 9370 vs AVG) and 399 genes (compound 7303 vs AVG). It was uncovered that 276 genes were co-regulated by all of the exemplary invention compounds and AVG (FIG. 7C and Table 2). On the basis of GO descriptions generated by Gene Spring GX and TAIR database, the 276 genes were divided into subgroups related to their biological functions (Table 2). […] In addition, stress- and pathogenesis-related genes were among the co-regulated genes, possibly because ethylene is involved in both biotic and abiotic stresses.
Genes (1446 non-redundant loci) were selected by 1.5-fold differential expression between eto1-4 and WT as the master pool for analysis. These genes were used for comparison between chemical treatments by AVG and the exemplary invention compounds. The finalized 276 genes that are co-regulated by AVG and all of the exemplary invention compounds are shown. Locus ID also present in Nemhauser et al. (Nemhauser, et al. (2006) Cell 126, 467-475).

[1] = of 1446 genes differentially expressed between WT and eto1-4, 10 μM
[2] = ratio eto1-4 treated to eto1-4 (no treatment)

Cc1ccc(C2CC(=O)c3cnc(NC4CCCC4)nc3C2)cc1 (centres unmarked) [Compound 9370]
number of genes co-regulated with AVG (of 561 genes associated with AVG, 10 μM): 389 genes | number of genes regulated (expression reverted close to WT) [1]: 728 genes | percentage of genes regulated (expression reverted close to WT) [1]: 50.3% | number of genes regulated specifically, not related to AVG treatment (of all genes regulated by the compound (629, 728, 650), 10 μM): 339 genes | Signal Fold Change AT1G03457, unknown biological function [2]: 2.50 | Signal Fold Change AT1G03660, unknown biological function [2]: 2.61 | Signal Fold Change AT1G05010 ACC oxidase [2]: 0.28 | Signal Fold Change AT1G05760 jacalin lectin protein [2]: 3.58 | Signal Fold Change AT1G06720 expressed protein [2]: 1.28 | Signal Fold Change AT1G07280, unknown biological function [2]: 0.51 | Signal Fold Change AT1G07560 leucine-rich repeat protein kinase [2]: 2.24 | Signal Fold Change AT1G08650 phosphoenolpyruvate carboxylase kinase [2]: 2.03 | Signal Fold Change AT1G08990 glycogenin glucosyltransferase [2]: 2.25 | Signal Fold Change AT1G09530 phytochrome interacting factor 3 [2]: 0.28 | Signal Fold Change AT1G10760 starch excess protein (SEX1) [2]: 0.33 | Signal Fold Change AT1G13430, response to cytokinin stimulus, sulfotransferase protein [2]: 0.28 | Signal Fold Change AT1G14540 anionic peroxidase [2]: 0.53 | Signal Fold Change AT1G15380 lactoylglutathione lyase [2]: 2.66 | Signal Fold Change AT1G17970, unknown biological function [2]: 2.50 | Signal Fold Change AT1G18880 proton-dependent oligopeptide transport (POT) protein [2]: 1.93 | Signal Fold Change AT1G20190, cell wall organization and biogenesis, expansin (EXP11) [2]: 0.31 | Signal Fold Change AT1G22740 Ras-related protein (RAB7) [2]: 2.62 | Signal Fold Change AT1G23060, unknown biological function [2]: 0.36 | Signal Fold Change AT1G26930, unknown biological function [2]: 0.47 | Signal Fold Change AT1G27380 p21-rho-binding domain-containing protein [2]: 1.96 | Signal Fold Change AT1G29520, unknown biological function [2]: 1.93 | Signal Fold Change AT1G30750, unknown biological function [2]: 2.58 | Signal Fold Change AT1G31710 copper amine oxidase [2]: 4.67 | Signal Fold Change AT1G32410 vacuolar protein sorting 55 protein [2]: 2.06 | Signal Fold Change AT1G32560 late embryogenesis abundant group 1 domain-containing protein [2]: 1.59 | Signal Fold Change AT1G33470, unknown biological function [2]: 2.21 | Signal Fold Change AT1G33790, unknown biological function [2]: 0.18 | Signal Fold Change AT1G34040, unknown biological function [2]: 2.08 | Signal Fold Change AT1G35350, unknown biological function [2]: 4.97 | Signal Fold Change AT1G35612, unknown biological function [2]: 3.56 | Signal Fold Change AT1G42470, unknown biological function [2]: 4.28 | Signal Fold Change AT1G44800, unknown biological function [2]: 1.93 | Signal Fold Change AT1G44830 AP2-containing transcription factor [2]: 0.34 | Signal Fold Change AT1G48480 leucine-rich repeat trans-membrane protein kinase [2]: 2.68 | Signal Fold Change AT1G49660 expressed protein [2]: 0.34 | Signal Fold Change AT1G50560 cytochrome P450 [2]: 2.32 | Signal Fold Change AT1G52830 auxin-responsive protein [2]: 5.14 | Signal Fold Change AT1G56010 transcription activator NAC1 [2]: 2.65 | Signal Fold Change AT1G56020, unknown biological function [2]: 0.50 | Signal Fold Change AT1G58070, unknown biological function [2]: 2.32 | Signal Fold Change AT1G59590, unknown biological function [2]: 3.53 | Signal Fold Change AT1G59740 proton-dependent oligopeptide transport (POT) protein [2]: 0.39 | Signal Fold Change AT1G62290 aspartyl protease protein [2]: 0.27 | Signal Fold Change AT1G62510 lipid transfer protein [2]: 2.17 | Signal Fold Change AT1G62620, unknown biological function [2]: 2.47 | Signal Fold Change AT1G64200 V-ATPase E subunit [2]: 2.41 | Signal Fold Change AT1G65510, unknown biological function [2]: 2.74 | Signal Fold Change AT1G65920, unknown biological function [2]: 0.31 | Signal Fold Change AT1G66230 myb transcription factor (MYB20) [2]: 2.70 | Signal Fold Change AT1G67030 zinc finger (C2H2 type) protein [2]: 7.63 | Signal Fold Change AT1G68230, unknown biological function [2]: 2.55 | Signal Fold Change AT1G68520 zinc finger (B-box type) protein [2]: 2.74 | Signal Fold Change AT1G69570 Dof-type zinc finger-containing protein [2]: 3.22 | Signal Fold Change AT1G70210 cyclin delta-1 [2]: 3.28 | Signal Fold Change AT1G70850 Bet v I allergen protein [2]: 9.49 | Signal Fold Change AT1G70890 major latex protein [2]: 5.19 | Signal Fold Change AT1G71030 myb transcription factor (MYB2) [2]: 5.41 | Signal Fold Change AT1G71740, unknown biological function [2]: 2.84 | Signal Fold Change AT1G72230 plastocyanin like protein [2]: 3.09 | Signal Fold Change AT1G73220 sugar transporter protein [2]: 3.97 | Signal Fold Change AT1G73300 serine carboxypeptidase S10 protein [2]: 2.36 | Signal Fold Change AT1G73310 serine carboxypeptidase S10 protein [2]: 2.66 | Signal Fold Change AT1G73330 protease inhibitor [2]: 4.31 | Signal Fold Change AT1G73590 auxin efflux carrier protein [2]: 2.08 | Signal Fold Change AT1G73640, small GTPase mediated signal transduction, Ras-related GTP-binding protein [2]: 2.10 | Signal Fold Change AT1G73830 bHLH protein [2]: 0.37 | Signal Fold Change AT1G75500, unknown biological function [2]: 3.37 | Signal Fold Change AT1G76220, unknown biological function [2]: 3.55 | Signal Fold Change AT1G76500, photomorphogenesis, DNA-binding protein [2]: 0.42 | Signal Fold Change AT1G76540 cell division control protein [2]: 2.53 | Signal Fold Change AT1G76790, unknown biological function [2]: 3.90 | Signal Fold Change AT1G78240 dehydration-responsive protein [2]: 0.47 | Signal Fold Change AT1G80380 phosphoribulokinase [2]: 2.14 | Signal Fold Change AT2G01910, microtubule nucleation, microtubule associated protein (MAP65/ASE1) protein [2]: 2.62 | Signal Fold Change AT2G02820 myb transcription factor (MYB88) [2]: 4.00 | Signal Fold Change AT2G02850 plantacyanin [2]: 0.23 | Signal Fold Change AT2G16580 auxin-responsive protein [2]: 2.83 | Signal Fold Change AT2G16990, unknown biological function [2]: 2.79 | Signal Fold Change AT2G19590 ACC oxidase [2]: 0.28 | Signal Fold Change AT2G19970, unknown biological function [2]: 3.06 | Signal Fold Change AT2G20080, unknown biological function [2]: 3.75 | Signal Fold Change AT2G20670, unknown biological function [2]: 2.45 | Signal Fold Change AT2G21820, unknown biological function [2]: 0.85 | Signal Fold Change AT2G21880 Ras-related GTP-binding protein [2]: 3.99 | Signal Fold Change AT2G22860 phytosulfokines 2 (PSK2) [2]: 2.67 | Signal Fold Change AT2G24150 expressed protein (response to hormone stimulus) [2]: 2.23 | Signal Fold Change AT2G25900 zinc finger (CCCH-type) protein [2]: 1.48 | Signal Fold Change AT2G26070 expressed protein (response to ethylene stimulus) [2]: 0.28 | Signal Fold Change AT2G26440 pectinesterase protein [2]: 0.38 | Signal Fold Change AT2G26740 epoxide hydrolase [2]: 0.23 | Signal Fold Change AT2G27140 heat shock protein [2]: 2.43 | Signal Fold Change AT2G27370, unknown biological function [2]: 2.26 | Signal Fold Change AT2G28305, unknown biological function [2]: 3.16 | Signal Fold Change AT2G28410, unknown biological function [2]: 2.92 | Signal Fold Change AT2G29340 short-chain dehydrogenase [2]: 0.30 | Signal Fold Change AT2G29440, toxin catabolic process, glutathione S-transferase [2]: 0.20 | Signal Fold Change AT2G30360 CBL-interacting protein kinase 11 (CIPK11) [2]: 2.02 | Signal Fold Change AT2G33380 calcium-binding RD20 protein [2]: 0.21 | Signal Fold Change AT2G33990, unknown biological function [2]: 2.72 | Signal Fold Change AT2G34300, unknown biological function [2]: 0.33 | Signal Fold Change AT2G34500 cytochrome P450 [2]: 4.05 | Signal Fold Change AT2G34510, unknown biological function [2]: 2.70 | Signal Fold Change AT2G34700, unknown biological function [2]: 1.03 | Signal Fold Change AT2G35300 late embryogenesis abundant group 1 domain-containing protein [2]: 1.92 | Signal Fold Change AT2G35710 glycogenin glucosyltransferase [2]: 2.23 | Signal Fold Change AT2G36350 protein kinase [2]: 0.55 | Signal Fold Change AT2G36410, unknown biological function [2]: 2.60 | Signal Fold Change AT2G37130 peroxidase 21 [2]: 2.23 | Signal Fold Change AT2G38760, unknown biological function [2]: 4.10 | Signal Fold Change AT2G38790, unknown biological function [2]: 1.99 | Signal Fold Change AT2G39010 aquaporin [2]: 2.05 | Signal Fold Change AT2G39310, unknown biological function [2]: 2.73 | Signal Fold Change AT2G39980, unknown biological function [2]: 0.14 | Signal Fold Change AT2G40420 amino acid transporter [2]: 2.03 | Signal Fold Change AT2G41090, unknown biological function [2]: 0.19 | Signal Fold Change AT2G41230, unknown biological function [2]: 0.07 | Signal Fold Change AT2G42320, unknown biological function [2]: 0.53 | Signal Fold Change AT2G43050 pectinesterase protein [2]: 2.35 | Signal Fold Change AT2G43535 trypsin inhibitor [2]: 6.13 | Signal Fold Change AT2G44110 seven transmembrane MLO protein [2]: 0.39 | Signal Fold Change AT2G44130 kelch repeat containing F-box protein [2]: 3.39 | Signal Fold Change AT2G47510 fumarate hydratase [2]: 0.43 | Signal Fold Change AT2G47550 pectinesterase protein [2]: 0.39 | Signal Fold Change AT2G48030, unknown biological function [2]: 2.61 | Signal Fold Change AT3G04010 glycosyl hydrolase [2]: 1.98 | Signal Fold Change AT3G05990, signal transduction, phosphodiesterase leucine-rich repeat protein [2]: 2.15 | Signal Fold Change AT3G09020, unknown biological function [2]: 3.28 | Signal Fold Change AT3G09780 protein kinase [2]: 0.50 | Signal Fold Change AT3G10080, unknown biological function [2]: 2.52 | Signal Fold Change AT3G10340 phenylalanine ammonia-lyase [2]: 1.94 | Signal Fold Change AT3G11550, unknown biological function [2]: 2.39 | Signal Fold Change AT3G12030, DNA repair, expressed protein [2]: 2.17 | Signal Fold Change AT3G12500 basic endocexemplary inase [2]: 1.91 | Signal Fold Change AT3G13980, unknown biological function [2]: 6.74 | Signal Fold Change AT3G14370 protein kinase [2]: 0.30

Reference: US8481459B2, “Chemical inhibitors of ethylene biosynthesis” (Academia Sinica, priority 2010, dated 2013)
